A melting point compilation (Tetko et al.; mined from patent text by program, amines drawn as free bases though some values may be those of a salt)

SMILES	melting point [°C]
CCc1noc(-c2cn(-c3ccc(OC)cc3)cn2)n1	147 to 148
Clc1cc2nc(NC3CC3)[nH]c2cc1Cl	223 to 225
Nc1ccc(S(=O)c2ccc(-c3ccc(Br)cc3)cc2)cc1[N+](=O)[O-] (stereo not drawn)	218 to 220
CC1NC(=O)NN=C1c1ccc(C#N)cc1 (stereo not drawn)	268 to 269
ClCc1cn2cc(Br)ccc2n1	125 to 126
CC(=O)Nc1ccc(S(=O)(=O)Nc2ccn(C3CCCC3)c(=O)n2)cc1	219 to 228
Nc1nc(O)cc(CCl)n1	195 to 197
N#Cc1cc(-c2ccc3c(c2)C(C2CC2)(C2CC2)OC(=O)N3)cs1	244 to 245
O=C1c2ccccc2C(=O)N1N1C2CCCCC21 (stereo not drawn)	75 to 77
CC1Cc2ccc(Br)cc2C(c2ccc([N+](=O)[O-])cc2)O1 (stereo not drawn)	130 to 133
CC1=C(C(=O)OCCN(C)C)C(c2cccc([N+](=O)[O-])c2)C(C(=O)OCC2CC2)=C(C)N1 (stereo not drawn)	125 to 126
NC(=O)NC(=O)c1ccncc1	245 to 247
Cn1c(-c2n[nH]c(=O)[nH]2)nc2ccccc21	293 to 296
CCOC(=O)C(C#N)Cc1cc(OC)c(OC)cc1C (stereo not drawn)	39 to 40
COC(=O)Cn1nnc(N)n1	127 to 128
COc1cccc(C23CN(C)CC2CC32OCC(C)(C)CO2)c1 (stereo not drawn)	132 to 135
CCOC(=O)C(=NOCCCl)c1csc(N)n1	126 to 128
CCCCCCCCCCCCCCCCCCOc1cc(OCCCP(=O)(OCC)OCC)cc(C(=O)O)c1	53 to 55
CCC(=O)N(C)c1cccc(-c2ccnc3c(C(=O)c4ccccc4)cnn23)c1	154 to 156
CN1C(=O)C(=C2CCN(Cc3ccccc3)CC2)c2ccccc21	101 to 102
CCOC(=O)c1cn(CC)c2nn(C)cc2c1=O	170 to 172
CCOC(=O)C(=NOC)c1csc2cc(F)ccc12	84.5 to 86
CC(c1cccc(NC(=O)NC2N=C(c3ccccc3F)c3ccccc3N(CC(=O)N3CC4CCC(CC4)C3)C2=O)c1)S(=O)(=O)O (racemic)	> 250
C=C(C)C(=O)OCCOc1ccc(/C=C/C(=O)OC)cc1	81 to 82

SMILES	melting point [°C]
Cn1cc(C(=O)NCc2ccc(Cl)cc2)c(=O)c2cc(CN3CCOCC3)cc(C#CCn3ccnc3)c21	178 to 180
O=C(N1CC([N+](=O)[O-])([N+](=O)[O-])C1)C(F)(F)F	70 to 71
CCCCCC(O)CCCC(CCCCCCC(=O)O)S(C)(=O)=O (stereo not drawn)	47 to 48
Brc1ccc2nc(-c3cccnc3)nn2c1	176
NC1CC(O)c2ccccc21 (stereo not drawn)	108 to 110
O=C(O)COc1ccc2c(c1)Nc1ccccc1S2	180 to 181
CC12C=CC(=O)NC1CCc1cc(Cl)ccc12 (stereo not drawn)	151 to 154
Cc1cc(C)c(CS(=O)c2ccccc2)c(-c2ccc(F)c(C)c2)c1 (stereo not drawn)	75 to 85
CN(C)CCCCOc1ccc2c(=O)cc(-c3ccccc3)oc2c1	95 to 96
c1ccc2c(c1)Cc1ccccc1N1CCNCC21 (stereo not drawn)	128 to 130
COC(=O)CS(=O)(=O)CCCCCn1nc(-c2ccccc2)c(-c2ccccc2)c1-c1ccccc1	102
CCc1cn2ccccc2c1S(=O)(=O)c1ccc(OS(=O)(=O)c2ccc(C)cc2)cc1	190
O=C(NC(=O)c1c(Cl)cccc1Cl)Nc1ccc(Cl)c(Cl)c1	232
O=C(O)c1cc(NC(=O)C(CS)Cc2ccccc2)ccc1O (stereo not drawn)	206 to 209
CCOC(CBr)(OCC)C(=NOC)C(=O)Cl	33 to 35
CCN1Cc2ccccc2C(=O)c2cc(CC(=O)OC)ccc21	116 to 119
N#CS/C=C\C(=O)Oc1ccccc1	79 to 83
Cc1cc(=O)n(CCCN2CCC(c3c[nH]c4ccccc34)CC2)c2ccccc12	74 to 77
Cc1ccc(CN2CCN(C3=NC4(C=CC(=O)C=C4)C(c4ccc(O)cc4)=C3)CC2)cc1	140
Nc1cccc(C(=O)c2ccc(-c3ccc(C(=O)c4cccc(N)c4)cc3)cc2)c1	217 to 218
OCCc1cccc2c(-c3ccccc3)c(Br)oc12	108 to 112
NCc1ccccc1-c1ccc(C(=O)N2Cc3ccc(C(=O)NCc4cccnc4)n3Cc3ccccc32)cc1	115 to 120
CNC(=O)ON=C1SC(C)C(=O)N1N(C)C (stereo not drawn)	110 to 113

Continued, values first:

melting point [°C]	SMILES
170 to 172	O=C(c1ccc(Cl)cc1)N1CCc2nnc(Cl)cc2C1
127 to 128	CN(C)c1ccc(/C=C/c2c(F)cc(F)cc2F)cc1
100 to 102	CCc1cc(NC(=O)N2CCN(c3cc(C)cc(C)c3)CC2)c(N2CCNCC2)nc1C
260 to 261	Cc1cc(NC(=O)c2c(Cl)cccc2Cl)c2nccc(-n3ccnc3)c2c1
280 to 284	Cc1cc(Cl)ncc1C(=O)Nc1ccc2c(c1)-c1c(c(C(N)=O)nn1-c1ccc(F)cc1)CC2
46.5 to 47.5	CCOC(=O)c1c(C(F)(F)F)nc(C(F)(F)F)c(C(=O)OCC)c1OC
180 to 182	CCCCOc1ccc2nc(C(=O)NCC(=O)O)c(O)cc2c1
116 to 117	COc1cccc(CC(=O)O)c1OCCCc1cc(OC(C)C)nn1Cc1ccc(C(F)(F)F)cc1
104 to 107	Cc1cc(Cn2nc(C(F)(F)F)cc2C(F)(F)F)ccc1NC(=O)c1cccc(I)c1C(=O)NC(C)(C)CS(C)(=O)=O
192 to 194	CCCn1c(=O)n2c(C)nnc2c2c1ncn2C
73 to 76.5	CCOC(=O)CCc1ccnc(O)c1
191	CC1CCc2ncc(C(N)=O)c(=O)n21 (stereo not drawn)
210	CC(=O)N1CCc2cc(S(=O)(=O)C[N+](=O)[O-])ccc21
140 to 141	Brc1ccc(CN2CCN(c3ccncc3)CC2)cc1
141 to 143	Cn1cc(Br)cc(Nc2ccc(N3CCN(CCF)CC3)cn2)c1=O
127 to 128	CCCCNC(=O)c1nc2cnn(CC)c2nc1-c1ccccc1
141 to 143	CN(C(=O)OC(C)(C)C)c1cc(Oc2ccc(C#N)cc2)ccc1[N+](=O)[O-]
197 to 199	O=C1NCCc2ccc(OCCCCN3CCN(c4cccc(Cl)c4Cl)CC3)nc2N1
260 to 263	O=C1NC(=O)C(=Cc2ccc(OCCCN3Cc4ccccc4C3=O)cc2)S1

melting point [°C]	SMILES
> 300	CC(=O)Nc1ccc(-c2c[nH]c(=O)c(C)n2)cc1
305 to 308	N#CNc1cc(Cl)ccc1N1CCOCC1
81.9 to 84.1	Cc1cc(N(C)C)nc2ccc(Br)cc12
236 to 238	O=C(O)c1cccc(S(=O)(=O)Cc2c(O[C@H](Cn3ccnc3)c3ccccc3)ccc3c2CCCC3=O)c1
202 to 204	O=Cc1cccc2c1sc1cc3ccccc3cc12
182 to 184	O=C(O)COc1cccc2c1OCc1sc(SCC(c3ccccc3)c3ccccc3)nc1-2
141 to 143	CCN(CC)C(=O)/C(=C/C=C/c1cc2ccccc2[nH]1)OC
71 to 72	CC(C)C[C@H]1C[C@]2(O)C[C@@H](OC2=O)[C@@H]1OC(=O)c1ccccc1
141 to 142	Cc1cccc(C)c1N(CCCC(=O)NCC(=O)O)C(=O)c1ccc(Cl)cc1
90 to 92	COc1cc(C(C)=O)cc(OC)c1O[Si](C)(C)C(C)(C)C
89 to 94	C[C@@H]1Cc2ccsc2[C@H](C)N1CCNC(=O)c1ccccc1N (relative stereo)
184 to 185	C=CCOCc1c(CO)sc2c(=O)c(C(=O)NCc3ccc(Cl)cc3)cn(C)c12
127	CCOC(=O)c1c(-c2cccc(Cl)c2)c2cc(C(O)c3nc(-c4ccccc4)cs3)ccc2[nH]c1=O (stereo not drawn)
96 to 98	CC1(C)CC(O)CC(C)(C)N1C#N
217	O=C(Nc1cc(S(=O)(=O)N(CCO)CCO)sc1Cl)c1cnn2c(C(F)(F)F)cc(-c3ccc(C(F)(F)F)cc3)nc12
202 to 204	COc1ccc(NC(=O)/C=C/c2cc(OC)c(OC)c(OC)c2)cc1N
113 to 115	CCOC(=O)C(=O)c1oc2cc(C)ccc2c1O
141 to 143	COc1nc(CCc2cc(Br)ccc2OCc2ccccc2)ccc1C(=O)O
208	Cc1[nH]cnc1CSCCNC1=C([N+](=O)[O-])CCN1

melting point [°C]	SMILES
154	Cn1c(=O)n(-c2ccccc2)c(=O)n1SC(Cl)(Cl)Cl
185 to 186	COc1ccc(F)cc1Oc1c(Cl)ncnc1NS(=O)(=O)c1ccc(C(F)(F)F)cc1
196 to 197	CC(C)(C)OC(=O)c1nc(-c2ccccc2)[nH]c1-c1cccnc1
179 to 180	Cc1cccc(/C=C/C(=O)Nc2cccc(NC(=N)c3ccccc3)c2)c1
118 to 120	O=C(NC1CCN(CCCc2ccccc2)C1)C12CC3CC(CC(C3)C1)C2 (stereo not drawn)
139	CCOC(C)c1ccc(OCCCN2CCC(c3noc4cc(F)ccc34)CC2)c(OC)c1 (stereo not drawn)
183 to 184	Cn1ccc2cc(NC(=O)CC34CC5CC(CC(C5)C3)C4)ccc21
180 to 181	Cc1cc(C)cc(Cc2c(C(C)C)c(=O)[nH]c(=O)n2C/C=C/c2ccccc2)c1
226 to 234	CC1(C)C=Cc2c(-c3[nH]c4cn[nH]c(=O)c4c3Cl)ccc(OC(F)F)c2O1
181 to 182	NC(=O)c1ncn(Cc2ccccc2)c1NC(=S)NC(=O)c1ccccc1
117	Cc1cc(C)c(O)c(CC(C)(C)CO)c1
127 to 128	ClCc1ccccc1COc1ccc(C=Cc2ccc3ccccc3n2)cc1
164 to 165	CC(=O)Nc1cccc(OCC(O)CNCCOc2ccc(C(N)=O)cc2)c1 (stereo not drawn)
111 to 115	CCC(O)c1ccccc1-c1ccc(C(=O)N2Cc3ccc(C(=O)NCc4cccnc4)n3Cc3ccccc32)cc1 (stereo not drawn)
153 to 155	O=C(O)c1c(F)cc(F)c(F)c1C(=O)O
188 to 190	COCCOc1cc2ncc(C#N)c(Nc3cc(OC)c(OC)c(OC)c3)c2cc1OC
41	S=c1c(Br)coc2ccccc12
155 to 157	Cc1nc2c(N)nc3ccccc3c2n1CCOCCN
